The values below are quoted from earlier work in US7875422B2, “Viral drug susceptibility testing” (Cavidi AB, priority 2001, dated 2011).

Where two headings read alike, the source gives them in different places.

The test system of data set [1] is HIV 1 virus with the corresponding RT modification. Also noted: key: S = sensitive; L = Low level resistance (2–10 times increase in inhibitory dose); I = Intermediate resistance (10–100 times increase); H = High level resistance (>100 times increase). As to conditions: phenotype data from literature, cited from earlier work.
For data set [2] the test system is unchanged. Also noted: key: RS = the mutations gives re-sensitation of resistant virus; S = sensitive; L = Low level resistance; I = Intermediate resistance; H = High level resistance. As to conditions: phenotype data from literature, cited from earlier work.
Data set [3] shares this test system. Also noted: key: S = sensitive; L = Low level resistance (2–10 times increase in inhibitory dose); I = Intermediate resistance (10–100 times increase); H = High level resistance (>100 times increase). As to conditions: dT analogues, phenotype data from literature, cited from earlier work.
Setting [4] is: virus with M41L/T69S-SS/L210W/R211K/L214F/T215Y.

On to `O=C1Nc2ccc(Cl)cc2C(C#CC2CC2)(C(F)(F)F)O1` (single isomer, unassigned; (-)) [Efavirienz, (−)6-chloro-4-cyclopropylethynyl-4-trifluoromethyl-1,4-dihydro-2H-3,1-benzoxazin-2-one], for which the “Sensitivity of the corresponding virus” value in data set [1] (virus with K103N) is reported as “H (H = High level resistance (>100 times increase))”; in data set [1] (virus with L100I/K103N) it was “H (H = High level resistance (>100 times increase))”; in data set [1] (virus with L100I), “I (I = Intermediate resistance (10–100 times increase))”; in data set [1] (wild type BH10, NNRTIs) it was “S”; in data set [1] (wild type HxB2, NNRTIs), “S”.

In the case of `Cc1cn([C@H]2C[C@H](N=[N+]=[N-])[C@@H](CO)O2)c(=O)[nH]c1=O` [AZT], the “Sensitivity of the corrsponding virus” value is “H” in data set [2] (setting [4]), “I” in data set [2] (virus with T215Y), “S” in data set [3] (wild type HXB2) and “S” in data set [3] (wildtype BH 10).

For the molecule `Cc1ccnc2c1NC(=O)c1cccnc1N2C1CC1` [Nevirapin, 11-cyclopropyl-5,11-dihydro-4-methyl-6H-dipyrido[3,2-b:2′,3′-f][1,4]diazepin-6-one], the “Sensitivity of the corresponding virus” value in data set [1] (virus with K103N) is “H (H = High level resistance (>100 times increase))”; in data set [1] (virus with L100I/K103N) it was “H (H = High level resistance (>100 times increase))”; in data set [1] (virus with L100I) it was “L (L = Low level resistance (2–10 times increase in inhibitory dose))”; in data set [1] (wild type BH10, NNRTIs), “S”; in data set [1] (wild type HxB2, NNRTIs), “S”.

As for `Cc1cn([C@H]2C=C[C@@H](CO)O2)c(=O)[nH]c1=O` [d4T], the “Sensitivity of the corrsponding virus” value is reported as “H” in data set [2] (setting [4]), “L” in data set [2] (virus with T215Y), “S” in data set [3] (wild type HXB2) and “S” in data set [3] (wildtype BH 10).
